Key:
Burkholderia glumae [1] = assay: Test Example 2: onset of Burkholderia glumae infection on rice sprayed with test liquid; type: in vivo; settings: for percentage of flower clusters with score 0 / percentage of flower clusters with score 1 / percentage of flower clusters with score 2 / percentage of flower clusters with score 3 / percentage of flower clusters with score 4 / percentage of flower clusters with score 5: Korean rice (Milyang 23), 7 days; for percentage of flower clusters with score 1: score 1 = 0.1% to 20% onset; for percentage of flower clusters with score 2: score 2 = 20% to 40% onset; for percentage of flower clusters with score 3: score 3 = 40% to 60% onset; for percentage of flower clusters with score 4: score 4 = 60% to 80% onset; for percentage of flower clusters with score 5: score 5 = 80% to 100% onset
Method: […] In a separate procedure, Burkholderia glumae were seeded to an LB culture medium and cultured overnight at 37° C., preparing an broth for infection.
Each test liquid (10 mL) was sprayed onto Korean rice (Milyang 23) raised in a hothouse until the flowering stage. The broth for infection was sprayed onto the rice one hour after the application of the test liquid. After cultivation for seven days, the onset of Burkholderia glumae infection on the rice was evaluated.
The evaluation was conducted by picking an ear from each plant, making a total of three ears. In each flower cluster (grain), the percentage of the portion that suffered from the onset of infection (i.e., the portion that turned brown) caused by the toxoflavin produced by Burkholderia glumae was visually observed and scored based on the scale shown below. The percentage of the total flower clusters was obtained and scored to indicate the onset of the infection.
The percentage that suffered from the onset of infection:
Not less than 0.1% and not greater than 20%: 1
Not less than 20% and not greater than 40%: 2
Not less than 40% and not greater than 60%: 3
Not less than 60% and not greater than 80%: 4
In this evaluation, three flower clusters (grains) having the same conditions were prepared, and reproducibility was confirmed by repeating the same evaluation three times. The same evaluation was also conducted as a comparative test except that water was used instead of the test liquid. Further, the same evaluation was conducted to serve as a blank except that water was used instead of both the test liquid and the broth for infection.

Burkholderia glumae [2] = assay: Test Example 1: toxoflavin (toxin) production by Burkholderia glumae in LB culture; type: cell-based; settings: for toxin doses (toxoflavin) produced by bacteria as concentration of compound increased: 0, 20, 40, 60, 80 or 100 μM, shake culturing 20 hours, LB medium, FIG. 1
Method: Burkholderia glumae was inoculated into an LB culture medium (produced by BD, Difco LB Broth: containing tryptone (10.0 g), yeast extract (5.0 g), and sodium chloride (10.0 g)), and cultured at 37° C. overnight. The broth thus obtained was subjected to bacterial collection using a centrifuge, and the collected bacteria were washed with an LB culture medium twice using a fresh LB culture medium each time. A fresh LB culture medium was added to the bacteria, and then Compound (1a-3) produced in Production Example 3 was added thereto in such a manner that its final concentration became a predetermined value (i.e., 0, 20, 40, 60, 80 or 100 μM), followed by shake culturing for 20 hours. The amount of toxoflavin produced by the bacteria in the broth was obtained by the following procedure.
Each broth was filtered by a 0.22-μm membrane filter, and 1 mL of the filtrate was isolated. One mL of chloroform was added to the filtrate, followed by extraction. The thus-obtained chloroform layer was concentrated under reduced pressure, and an 80% (V/V) aqueous methanol solution was added to and dissolved in the residue. The absorbance (at 260 nm) of the solution was measured, and the toxin doses were calculated from the calibration curve, which was obtained using a chemically synthesized standard toxin.
The same test was conducted as a comparative test using the compound (comparative compound) shown by the formula below disclosed in Patent Document 1.

Burkholderia glumae [3] = assay: Test Example 3: onset of Burkholderia glumae infection on rice sprayed with test liquid; type: in vivo; settings: for percentage of flower clusters with score 0: score 0 = less than 0.1% onset; for percentage of flower clusters with score 0 / percentage of flower clusters with score 1 / percentage of flower clusters with score 2 / percentage of flower clusters with score 3 / percentage of flower clusters with score 4 / percentage of flower clusters with score 5: Korean rice (Milyang 23), 7 days, infection broth sprayed 1 h after treatment; for percentage of flower clusters with score 1: score 1 = 0.1% to 20% onset; for percentage of flower clusters with score 2: score 2 = 20% to 40% onset; for percentage of flower clusters with score 3: score 3 = 40% to 60% onset; for percentage of flower clusters with score 4: score 4 = 60% to 80% onset; for percentage of flower clusters with score 5: score 5 = 80% to 100% onset
Method: Each test liquid (10 mL) was sprayed onto Korean rice ([…] 23) raised in a hothouse until the flowering stage. The broth for infection was sprayed onto the rice one hour after the application of the test liquid. After cultivation for seven days, the onset of Burkholderia glumae infection on the rice was evaluated in the same manner as in Test Example 2. The same evaluation was conducted as the comparative test in the same manner except that water was used instead of the test liquid. Further, the same evaluation was conducted to serve as a blank using water instead of both the test liquid and the broth for infection.

For `CCCCCCCC(=O)NC1=CC(=O)CCC1` [Compound (1a-3), N-(3-oxo-cyclohexen-1-yl)octanamide], the “percentage of flower clusters with score 0” value (Burkholderia glumae [1]; 50 μM spray, score 0 = less than 0.1% of portion with onset of infection) was 73%, the “percentage of flower clusters with score 1” value (Burkholderia glumae [1]; 50 μM spray) was 20% and the “percentage of flower clusters with score 2” value (Burkholderia glumae [1]; 50 μM spray) was 6%. For the same molecule, the “percentage of flower clusters with score 3” value (Burkholderia glumae [1]; 50 μM spray) was 1%, the “percentage of flower clusters with score 4” value (Burkholderia glumae [1]; 50 μM spray) was 0% and the “percentage of flower clusters with score 5” value (Burkholderia glumae [1]; 50 μM spray) was 0%. For the same molecule, the “percentage of flower clusters with score 0” value (Burkholderia glumae [1]; 100 μM spray, score 0 = less than 0.1% onset) was 85%, the “percentage of flower clusters with score 1” value (Burkholderia glumae [1]; 100 μM spray) was 10% and the “percentage of flower clusters with score 2” value (Burkholderia glumae [1]; 100 μM spray) was 3%. For the same molecule, the “percentage of flower clusters with score 3” value (Burkholderia glumae [1]; 100 μM spray) was 0%, the “percentage of flower clusters with score 4” value (Burkholderia glumae [1]; 100 μM spray) was 1% and the “percentage of flower clusters with score 5” value (Burkholderia glumae [1]; 100 μM spray) was 1%. The “percentage of flower clusters with score 0” value (Burkholderia glumae [1]; 150 μM spray, score 0 = less than 0.1% onset) was 84%, the “percentage of flower clusters with score 1” value (Burkholderia glumae [1]; 150 μM spray) was 9% and the “percentage of flower clusters with score 4” value (Burkholderia glumae [1]; 150 μM spray) was 1%. The “percentage of flower clusters with score 5” value (Burkholderia glumae [1]; 150 μM spray) was 1%, the “percentage of flower clusters with score 2” value (Burkholderia glumae [1]) was 4% and the “percentage of flower clusters with score 3” value (Burkholderia glumae [1]) was 1%. The “onset of Burkholderia glumae on rice” value (Burkholderia glumae [1]; test liquid sprayed onto rice, then broth for infection, Table 1 and FIG. 2) was “prevented”, the “toxin doses (toxoflavin) produced by bacteria as concentration of compound increased” value (Burkholderia glumae [2]) was “remarkably decreased” and the “percentage of flower clusters with score 0” value (Burkholderia glumae [3]; 50 μM spray) was 62%. The “percentage of flower clusters with score 1” value (Burkholderia glumae [3]; 50 μM spray) was 15%, the “percentage of flower clusters with score 2” value (Burkholderia glumae [3]; 50 μM spray) was 19% and the “percentage of flower clusters with score 3” value (Burkholderia glumae [3]; 50 μM spray) was 2%. For the same molecule, the “percentage of flower clusters with score 4” value (Burkholderia glumae [3]; 50 μM spray) was 1%, the “percentage of flower clusters with score 5” value (Burkholderia glumae [3]; 50 μM spray) was 1% and the “percentage of flower clusters with score 0” value (Burkholderia glumae [3]; 100 μM spray) was 82%. For the same molecule, the “percentage of flower clusters with score 1” value (Burkholderia glumae [3]; 100 μM spray) was 9%, the “percentage of flower clusters with score 2” value (Burkholderia glumae [3]; 100 μM spray) was 7% and the “percentage of flower clusters with score 3” value (Burkholderia glumae [3]; 100 μM spray) was 1%. For the same molecule, the “percentage of flower clusters with score 4” value (Burkholderia glumae [3]; 100 μM spray) was 1%, the “percentage of flower clusters with score 5” value (Burkholderia glumae [3]; 100 μM spray) was 0% and the “percentage of flower clusters with score 0” value (Burkholderia glumae [3]; 150 μM spray) was 89%. The “percentage of flower clusters with score 1” value (Burkholderia glumae [3]; 150 μM spray) was 8%, the “percentage of flower clusters with score 3” value (Burkholderia glumae [3]; 150 μM spray) was 1% and the “percentage of flower clusters with score 2” value (Burkholderia glumae [3]) was 1%. The “percentage of flower clusters with score 4” value (Burkholderia glumae [3]) was 1%, the “percentage of flower clusters with score 5” value (Burkholderia glumae [3]) was 0% and the “onset of Burkholderia glumae on rice” value (Burkholderia glumae [3]; test liquid sprayed onto rice, then broth for infection, Table 2 and FIG. 3) was “prevented”.
`CCCCCCCCCC(=O)CC(=O)Nc1ccccc1O` [comparative compound] was tested, and the “toxin doses (toxoflavin) produced by bacteria as concentration of compound increased” value (Burkholderia glumae [2]) was “almost no change” and the “control effect on bacterial infections” value (Burkholderia glumae [2]; statement in background referring to the Test Example) was “no control effect”.

Source: patent US8436210B2, “Amide compound and bacterial disease control agent for agricultural and horticultural use” (The University of Tokyo, priority 2007, dated 2013)
